Measurements published in patent US9302999B2, “Substituted triazoles as herbicides” (E. I. DU PONT DE NEMOURS AND COMPANY, priority 2012, dated 2016).

Legend:
Assay type in all cases: in vivo
[1] = system: goosegrass (Eleusine indica); test: Test F pre-/postemergence: goosegrass; conditions: Preemergence
Text: (§1) Seeds of plant species selected from corn (Zea mays), soybean (Glycine max), velvetleaf (Abutilon theophrasti), lambsquarters (Chenopodium album), poinsettia, wild (wild poinsettia, Euphorbia heterophylla), pigweed, palmer (palmer pigweed, Amaranthus palmeri), waterhemp (common waterhemp, Amaranthus rudis), surinam grass (Brachiaria decumbens), crabgrass, Brazil (Brazilian crabgrass, Digitaria horizontalis), panicum, fall (fall panicum Panicum dichotomiflorum), crabgrass, large (large crabgrass, Digitaria sanguinalis), foxtail, giant (giant foxtail, Setaria faberii), foxtail, green (green foxtail Setaria viridis), goosegrass (Eleusine indica), ragweed (common ragweed, Ambrosia elatior), barnyardgrass (Echinochloa crus-galli), sandbur (southern sandbur, Cenchrus echinatus), arrowleaf sida (Sida rhombifolia), ryegrass, Italian (Italian ryegrass, Lolium multiflorum), dayflower, VA (Virginia (VA) dayflower, Commelina virginica), field bindweed (Convolvulus arvensis), cocklebur (common cocklebur, Xanthium strumarium), morningglory (Ipomoea coccinea), nightshade (eastern black nightshade, Solanum ptycanthum), kochia (Kochia scoparia), nutsedge, yellow (yellow nutsedge, Cyperus esculentus), johnsongrass (Sorghum halepense), smartweed (ladysthumb smartweed, Polygonum persicaria), and beggarticks (hairy beggarticks, Bidens pilosa), were planted into a silt loam soil and treated preemergence with test chemicals formulated in a non-phytotoxic solvent mixture which included a surfactant. At the same time, plants selected from these crop and weed species and also pigweed (Amaranthus retroflexus), waterhemp_RES1 (ALS/Triazine resistant common waterhemp, Amaranthus rudis) and waterhemp_RES2 (ALS/HPPD resistant common waterhemp, Amaranthus rudis) were planted in pots containing a planting medium comprising spaghnum peat moss, vermiculite, wetting agent and starter nutrients treated with postemergence applications of some of the test chemicals formulated in the same manner. Plants ranged in height from 2 to 18 cm for postemergence treatments (1- to 4-leaf stage).
(§2) Treated plants and controls were maintained in a greenhouse for 14 to 21 days, after which time all species were compared to controls and visually evaluated. Plant response ratings, summarized in Table E, are based on a scale of 0 to 100 where 0 is no effect and 100 is complete control. A dash (-) response means no test result.

[2] = system: beggarticks (hairy beggarticks, Bidens pilosa); test: Test F pre-/postemergence: beggarticks
Text: as §1, §2

[3] = system: foxtail, green (green foxtail, Setaria viridis); test: Test D pre-/postemergence: foxtail, green
In short: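 Species were sown in silt loam and sprayed preemergence, or grown in peat/vermiculite medium and sprayed postemergence at the 1- to 4-leaf stage (2–18 cm), with compounds in a surfactant-containing solvent. Injury was visually rated against untreated controls after 14–21 days, on a 0 (no effect) to 100 (complete control) scale.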

[4] = system: Russian thistle (Salsola iberica); test: Test D pre-/postemergence: Russian thistle; conditions: Postemergence
Text: (§3) Seeds of plant species selected from bluegrass (annual bluegrass, Poa annua), blackgrass (Alopecurus myosuroides), canarygrass (Phalaris minor), chickweed (common chickweed, Stellaria media), galium (catchweed bedstraw, Galium aparine), bromegrass, downy (downy bromegrass, Bromus tectorum), field poppy (Papaver rhoeas), field violet (Viola arvensis), foxtail, green (green foxtail, Setaria viridis), deadnettle (henbit deadnettle, Lamium amplexicaule), ryegrass, Italian (Italian ryegrass, Lolium multiflorum), kochia (Kochia scoparia), lambsquarters (Chenopodium album), oilseed rape (Brassica napus), pigweed (Amaranthus retroflexus), Russian thistle (Salsola iberica), chamomile (scentless chamomile, Matricaria inodora), speedwell (bird's-eye speedwell, Veronica persica), barley, spring (spring barley, Hordeum vulgare), wheat, spring (spring wheat, Triticum aestivum), buckwheat, wild (wild buckwheat, Polygonum convolvulus), mustard, wild (wild mustard, Sinapis arvensis), oat, wild (wild oat, Avena fatua), radish, wild (wild radish, Raphanus raphanistrum), windgrass (Apera spica-venti), barley, winter (winter barley, Hordeum vulgare), and wheat, winter (winter wheat, Triticum aestivum) were planted into a silt loam soil and treated preemergence with test chemicals formulated in a non-phytotoxic solvent mixture which included a surfactant. At the same time, these same crop and weed species were planted in pots containing the planting medium comprising spaghnum peat moss, vermiculite, wetting agent and starter nutrients and treated with postemergence applications of the test chemicals formulated in the same manner. Plants ranged in height from 2 to 18 cm (1- to 4-leaf stage).
as §2, with “controlled growth environment” for “greenhouse”, “days” for “days,”, “D,” for “E,”

[5] = system: barley, winter (winter barley, Hordeum vulgare); test: Test D pre-/postemergence: barley, winter
Text: as §3
as §2, with “controlled growth environment” for “greenhouse”, “days” for “days,”, “D,” for “E,”

[6] = 16 g ai/ha, scale 0 to 100, 0 no effect, 100 complete control
[7] = 31 g ai/ha, scale 0 to 100, 0 no effect, 100 complete control
[8] = Postemergence, 250 g ai/ha, scale 0 to 100
[9] = Postemergence, 16 g ai/ha, scale 0 to 100
[10] = Postemergence, 31 g ai/ha, scale 0 to 100
[11] = Postemergence, 62 g ai/ha, scale 0 to 100
[12] = Postemergence, 125 g ai/ha, scale 0 to 100
[13] = Preemergence, 16 g ai/ha, scale 0 to 100, 0 no effect, 100 complete control
[14] = Preemergence, 31 g ai/ha, scale 0 to 100, 0 no effect, 100 complete control
[15] = Preemergence, 62 g ai/ha, scale 0 to 100
[16] = Preemergence, 125 g ai/ha, scale 0 to 100
[17] = Preemergence, 250 g ai/ha, scale 0 to 100
[18] = Postemergence, 31 g ai/ha, scale 0 to 100 (0 no effect, 100 complete control)
[19] = Postemergence, 62 g ai/ha, scale 0 to 100 (0 no effect, 100 complete control)
[20] = Postemergence, 125 g ai/ha, scale 0 to 100, 0 no effect, 100 complete control

SMILES: CCc1nn(-c2ccc(C(F)(F)F)cc2)nc1Oc1ccnc(C(F)(F)F)c1 [Compound 169]
- Plant response rating, Goosegrass [1, 6]: 50
- Plant response rating, Goosegrass [1, 7]: 95
- Plant response rating, Goosegrass ([1]; 62 g ai/ha, scale 0 to 100): 100
- Plant response rating, Goosegrass ([1]; 125 g ai/ha, scale 0 to 100): 100
- Plant response rating, Goosegrass ([1]; 250 g ai/ha, scale 0 to 100): 100
- Plant response rating, Beggarticks [2, 8]: 40
- Plant response rating, Beggarticks [2, 9]: 25
- Plant response rating, Beggarticks [2, 10]: 25
- Plant response rating, Beggarticks [2, 11]: 25
- Plant response rating, Beggarticks [2, 12]: 30
- Plant response rating, Beggarticks [2, 13]: 0
- Plant response rating, Beggarticks [2, 14]: 0
- Plant response rating, Beggarticks [2, 15]: 0
- Plant response rating, Beggarticks [2, 16]: 5
- Plant response rating, Beggarticks [2, 17]: 5

SMILES: CCc1nn(-c2ccc(F)c(F)c2)nc1Oc1ccnc(C(F)(F)F)c1 [Compound 171]
- Plant response rating, Goosegrass [1, 6]: 70
- Plant response rating, Goosegrass [1, 7]: 80
- Plant response rating, Goosegrass ([1]; 62 g ai/ha, scale 0 to 100): 100
- Plant response rating, Goosegrass ([1]; 125 g ai/ha, scale 0 to 100): 100
- Plant response rating, Goosegrass ([1]; 250 g ai/ha, scale 0 to 100): 100
- Plant response rating, Beggarticks [2, 13]: 0
- Plant response rating, Beggarticks [2, 14]: 0
- Plant response rating, Beggarticks [2, 15]: 0
- Plant response rating, Beggarticks [2, 16]: 0
- Plant response rating, Beggarticks [2, 17]: 0

SMILES: CCCc1nn(-c2ccc(F)c(F)c2)nc1Oc1ccnc(C(F)(F)F)c1 [Compound 172]
- Plant response rating, Goosegrass [1, 7]: 98
- Plant response rating, Goosegrass ([1]; 125 g ai/ha, scale 0 to 100): 100
- Plant response rating, Goosegrass ([1]; 250 g ai/ha, scale 0 to 100): 100
- Plant response rating, Beggarticks [2, 8]: 60
- Plant response rating, Beggarticks [2, 10]: 40
- Plant response rating, Beggarticks [2, 12]: 50
- Plant response rating, Beggarticks [2, 14]: 15
- Plant response rating, Beggarticks [2, 16]: 25
- Plant response rating, Beggarticks [2, 17]: 25

SMILES: CCOc1nn(-c2ccc(F)cc2)nc1Cc1ccnc(C(F)(F)F)c1 [Compound 196, 4-[[5-ethoxy-2-(4-fluorophenyl)-2H-1,2,3-triazol-4-yl]methyl]-2-(trifluoromethyl)pyridine]
- Plant response rating: Foxtail, Green [3, 18]: 80
- Plant response rating: Foxtail, Green [3, 19]: 85
- Plant response rating: Foxtail, Green [3, 20]: 95
- Plant response rating, Foxtail, Green [3, 9]: 55
- Plant response rating, Foxtail, Green [3, 13]: 60
- Plant response rating, Foxtail, Green [3, 14]: 60
- Plant response rating, Foxtail, Green [3, 15]: 75
- Plant response rating, Foxtail, Green [3, 16]: 100
- Plant response rating: Russian Thistle ([4]; 31 g ai/ha, scale 0 to 100 (0 no effect, 100 complete control)): 90
- Plant response rating: Russian Thistle ([4]; 62 g ai/ha, scale 0 to 100 (0 no effect, 100 complete control)): 80
- Plant response rating: Russian Thistle ([4]; 125 g ai/ha, scale 0 to 100, 0 no effect, 100 complete control): 75
- Plant response rating, Russian Thistle ([4]; 16 g ai/ha, scale 0 to 100): 80
- Plant response rating: Barley, Winter [5, 18]: 20
- Plant response rating: Barley, Winter [5, 19]: 35
- Plant response rating: Barley, Winter [5, 20]: 40
- Plant response rating, Barley, Winter [5, 9]: 15
- Plant response rating, Barley, Winter [5, 13]: 5
- Plant response rating, Barley, Winter [5, 14]: 10
- Plant response rating, Barley, Winter [5, 15]: 15
- Plant response rating, Barley, Winter [5, 16]: 40
- Plant response rating, Goosegrass ([1]; 8 g ai/ha, scale 0 to 100, 0 no effect, 100 complete control): 40
- Plant response rating, Goosegrass [1, 6]: 60
- Plant response rating, Goosegrass [1, 7]: 75
- Plant response rating, Goosegrass ([1]; 62 g ai/ha, scale 0 to 100): 100
- Plant response rating, Goosegrass ([1]; 125 g ai/ha, scale 0 to 100): 100
- Plant response rating, Beggarticks ([2]; Postemergence, 8 g ai/ha, scale 0 to 100): 50
- Plant response rating, Beggarticks [2, 9]: 60
- Plant response rating, Beggarticks [2, 10]: 60
- Plant response rating, Beggarticks [2, 11]: 60
- Plant response rating, Beggarticks [2, 12]: 70
- Plant response rating, Beggarticks ([2]; Preemergence, 8 g ai/ha, scale 0 to 100, 0 no effect, 100 complete control): 0
- Plant response rating, Beggarticks [2, 13]: 50
- Plant response rating, Beggarticks [2, 14]: 50
- Plant response rating, Beggarticks [2, 15]: 50
- Plant response rating, Beggarticks [2, 16]: 65
